Measurements reported in patent publication EP2818472A1, “Imidazo[4,5-c]pyridine and pyrrolo[3,2-c]pyridine compounds as G-protein-coupled receptor kinase 5 (GRK5) modulators” (Max-Planck-Gesellschaft zur Förderung der Wissenschaften …, priority 2013, dated 2014).

test system: beta-TC6 cells; assay: Insulin HTRF assay (relative activity Ar) in beta-TC6 cells; type: cell-based, mouse; conditions: Mus musculus, Beta-TC6, 4 h, insulin HTRF, supernatant of beta-TC6 cells, incubation with test compound at 37°C for 2, 3, 4h; read-out: Ar (relative activity)
In short: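 beta-TC6 cells (15k/well, seeded 24 or 48 h) washed, then exposed to compound in induction buffer (0.5% DMSO final) for 2, 3 or 4 h at 37°C.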

`COc1cccc(Nc2cc3c(cn2)cc(-c2cnn(C)c2)n3C)c1` [Compound 127, N-(3-methoxyphenyl)-1-methyl-2-(1-methylpyrazol-4-yl)pyrrolo[3,2-c]pyridin-6-amine] and `CC(=O)N(C)c1cccc(-c2cc3cnc(Nc4ccc(C(N)=O)cc4)cc3n2C)c1` [Compound 159, 4-[[2-[3-[acetyl(methyl)amino]phenyl]-1-methyl-pyrrolo[3,2-c]pyridin-6-yl]amino]benzamide] fall in the same range of Emax: 50 to 100% for the first, 50 to 100% for the second.

First: CN(C)C(=O)c1ccc(-c2cc3cnc(Nc4ccc(OC(F)(F)F)cc4)cc3[nH]2)cc1 [Compound 34, N,N-dimethyl-4-[6-[4-(trifluoromethoxy)anilino]-1H-pyrrolo[3,2-c]pyridin-2-yl]benzamide]
Second: CN(C)C(=O)c1ccc(-c2cc3cnc(Nc4cccnc4)cc3[nH]2)cc1 [Compound 22, N,N-dimethyl-4-[6-(3-pyridylamino)-1H-pyrrolo[3,2-c]pyridin-2-yl]benzamide]
The Emax of the first is lower: 0 to 30% for the first, over 100% for the second.

`CNc1nc2cnc(Nc3ccc(OC)cc3)cc2n1CCN1CCOCC1` [Compound 557, N6-(4-methoxyphenyl)-N2-methyl-1-(2-morpholinoethyl)imidazo[4,5-c]pyridine-2,6-diamine] and `CNc1nc2cnc(Nc3ccc(N4CCOCC4)cc3)cc2n1CC1CC1` [Compound 571, 1-(cyclopropylmethyl)-N2-methyl-N6-(4-morpholinophenyl)imidazo[4,5-c]pyridine-2,6-diamine] fall in the same range of Emax: 50 to 100% for the first, 50 to 100% for the second.

Compared with `COc1ccc(OC)c(CCNc2nc3cnc(-c4ccncc4)cc3n2C)c1` [Compound 591, N-[2-(2,5-dimethoxyphenyl)ethyl]-1-methyl-6-(4-pyridyl)imidazo[4,5-c]pyridin-2-amine], `COc1ccc(OC)c(CCNc2nc3cnc(-c4ccc5c(c4)OCO5)cc3n2C)c1` [Compound 816, 6-(1,3-benzodioxol-5-yl)-N-[2-(2,5-dimethoxyphenyl)ethyl]-1-methyl-imidazo[4,5-c]pyridin-2-amine] is lower in Emax: 30 to 50% for the first, 0 to 30% for the second.

First: Oc1cccc(Nc2cc3[nH]c(-c4ccccc4)cc3cn2)c1 [Compound 180, 3-[(2-phenyl-1H-pyrrolo[3,2-c]pyridin-6-yl)amino]phenol]
Second: CC(=O)Nc1cccc(Nc2cc3[nH]c(-c4cccc(F)c4)cc3cn2)c1 [Compound 15, N-[3-[[2-(3-fluorophenyl)-1H-pyrrolo[3,2-c]pyridin-6-yl]amino]phenyl]acetamide]
The Emax of the first is higher: 50 to 100% for the first, 30 to 50% for the second.

First: CC(=O)Nc1cccc(Nc2cc3[nH]c(-c4cccnc4)cc3cn2)c1 [Compound 80, N-[3-[[2-(3-pyridyl)-1H-pyrrolo[3,2-c]pyridin-6-yl]amino]phenyl]acetamide]
Second: Cn1cncc1-c1cc2cnc(Nc3cccc(Cl)c3)cc2[nH]1 [Compound 103, N-(3-chlorophenyl)-2-(3-methylimidazol-4-yl)-1H-pyrrolo[3,2-c]pyridin-6-amine]
The Emax of the first is higher: over 100% for the first, 30 to 50% for the second.

Compared with `COc1cc(Nc2nc3cnc(-c4ccccc4)cc3n2C)cc(OC)c1OC` [Compound 588, 1-methyl-6-phenyl-N-(3,4,5-trimethoxyphenyl)imidazo[4,5-c]pyridin-2-amine], `COc1cc(Nc2nccc3[nH]c(-c4ccccc4)nc23)cc(OC)c1OC` [Compound 329, 2-phenyl-N-(3,4,5-trimethoxyphenyl)-1H-imidazo[4,5-c]pyridin-4-amine] is higher in Emax: 30 to 50% for the first, 50 to 100% for the second.

`CNc1nc2cnc(Nc3cccc(C(C)=O)c3)cc2n1-c1ccccc1` [Compound 517, 1-[3-[[2-(methylamino)-1-phenyl-imidazo[4,5-c]pyridin-6-yl]amino]phenyl]ethanone] and `CNc1nc2cnc(Nc3cccc(NC(C)=O)c3)cc2n1-c1ccccc1` [Compound 516, N-[3-[[2-(methylamino)-1-phenyl-imidazo[4,5-c]pyridin-6-yl]amino]phenyl]acetamide] fall in the same range of Emax: 50 to 100% for the first, 50 to 100% for the second.

`CN(C)C(=O)c1ccc(Nc2nccc3[nH]c(-c4ccccc4)cc23)cc1` [Compound 322, N,N-dimethyl-4-[(2-phenyl-1 H-pyrrolo[3,2-c]pyridin-4-yl)amino]benzamide] and `NC(=O)c1ccc(Nc2nccc3[nH]c(-c4ccccc4)cc23)cc1` [Compound 318, 4-[(2-phenyl-1H-pyrrolo[3,2-c]pyridin-4-yl)amino]benzamide] cannot be ordered by Emax: over 100% for the first, over 100% for the second.

`Cn1c(-c2cccc(F)c2)nc2cnc(Nc3ccc4c(c3)OCO4)cc21` [Compound 714, N-(1,3-benzodioxol-5-yl)-2-(3-fluorophenyl)-1-methyl-imidazo[4,5-c]pyridin-6-amine] and `CNc1nc2cnc(Nc3cccc(N(C)C)c3)cc2n1-c1cccc(F)c1` [Compound 682, N6-[3-(dimethylamino)phenyl]-1-(3-fluorophenyl)-N2-methyl-imidazo[4,5-c]pyridine-2,6-diamine] fall in the same range of Emax: 50 to 100% for the first, 50 to 100% for the second.

First: CN(C)C(=O)c1ccc(-c2cc3cnc(Nc4cccc(NS(C)(=O)=O)c4)cc3[nH]2)cc1 [Compound 39, 4-[6-[3-(methanesulfonamido)anilino]-1H-pyrrolo[3,2-c]pyridin-2-yl]-N,N-dimethyl-benzamide]
Second: COc1cccc(-c2cc3c(Nc4ccc(C(=O)N(C)C)cc4)nccc3[nH]2)c1 [Compound 313, 4-[[2-(3-methoxyphenyl)-1H-pyrrolo[3,2-c]pyridin-4-yl]amino]-N,N-dimethyl-benzamide]
The Emax of the first is lower: 50 to 100% for the first, over 100% for the second.

`CN(C)c1ccc(-c2cc3cnc(Nc4ccncn4)cc3n2Cc2ccccc2)cc1` [Compound 61, 1-benzyl-2-(4-dimethylaminophenyl)-N-pyrimidin-4-yl-pyrrolo[3,2-c]pyridin-6-amine] and `CN(C)c1ccc(-c2cc3cnc(Nc4ccccn4)cc3n2C)cc1` [Compound 59, 2-(4-dimethylaminophenyl)-1-methyl-N-(2-pyridyl)pyrrolo[3,2-c]pyridin-6-amine] fall in the same range of Emax: 0 to 30% for the first, 0 to 30% for the second.

Compared with `CNc1nc2cnc(Nc3cc(C(F)(F)F)ccc3F)cc2n1Cc1ccco1` [Compound 777, N6-[2-fluoro-5-(trifluoromethyl)phenyl]-1-(2-furylmethyl)-N2-methyl-imidazo[4,5-c]pyridine-2,6-diamine], `CNc1nc2cnc(Nc3cccc(N(C)C)c3)cc2n1Cc1ccco1` [Compound 522, N6-[3-(dimethylamino)phenyl]-1-(2-furylmethyl)-N2-methyl-imidazo[4,5-c]pyridine-2,6-diamine] is higher in Emax: 0 to 30% for the first, 30 to 50% for the second.

Compared with `COc1ccc(Nc2nccc3[nH]c(-c4ccc5c(c4)OCCO5)nc23)cc1` [Compound 414, 2-(2,3-dihydro-1,4-benzodioxin-6-yl)-N-(4-methoxyphenyl)-1H-imidazo[4,5-c]pyridin-4-amine], `COc1cccc(Nc2nccc3[nH]c(-c4cccc(OC)c4)nc23)c1` [Compound 368, N,2-bis(3-methoxyphenyl)-1H-imidazo[4,5-c]pyridin-4-amine] is lower in Emax: 50 to 100% for the first, 30 to 50% for the second.

First: COc1cc(Nc2nccc3c2cc(-c2cccnc2)n3C)cc(OC)c1OC [Compound 237, 1-methyl-2-(3-pyridyl)-N-(3,4,5-trimethoxyphenyl)pyrrolo[3,2-c]pyridin-4-amine]
Second: Cn1c(-c2ccsc2)cc2c(Nc3cccnc3)nccc21 [Compound 276, 1-methyl-N-(3-pyridyl)-2-(3-thienyl)pyrrolo[3,2-c]pyridin-4-amine]
The Emax of the first is higher: over 100% for the first, 30 to 50% for the second.

First: COc1cccc(Nc2nccc3[nH]c(-c4cccc(OC)c4F)nc23)c1 [Compound 468, 2-(2-fluoro-3-methoxy-phenyl)-N-(3-methoxyphenyl)-1H-imidazo[4,5-c]pyridin-4-amine]
Second: COc1cccc(-c2nc3c(Nc4cccc(O)c4)nccc3[nH]2)c1F [Compound 478, 3-[[2-(2-fluoro-3-methoxy-phenyl)-1H-imidazo[4,5-c]pyridin-4-yl]amino]phenol]
The Emax of the first is lower: 30 to 50% for the first, 50 to 100% for the second.

First: COc1cccc(-c2nc3c(Nc4cccc(S(C)(=O)=O)c4)nccc3[nH]2)c1F [Compound 477, 2-(2-fluoro-3-methoxy-phenyl)-N-(3-methylsulfonylphenyl)-1H-imidazo[4,5-c]pyridin-4-amine]
Second: COc1ccc(-c2nc3c(Nc4cc(OC)c(OC)c(OC)c4)nccc3[nH]2)cc1 [Compound 389, 2-(4-methoxyphenyl)-N-(3,4,5-trimethoxyphenyl)-1H-imidazo[4,5-c]pyridin-4-amine]
The Emax of the first is lower: 30 to 50% for the first, 50 to 100% for the second.

`COc1ccc(Nc2cc3c(cn2)nc(NCc2ccc(OC)c(OC)c2)n3C)cc1` [Compound 606, N2-[(3,4-dimethoxyphenyl)methyl]-N6-(4-methoxyphenyl)-1-methyl-imidazo[4,5-c]pyridine-2,6-diamine] and `CNc1nc2cnc(Nc3ccc(NC(C)=O)cc3)cc2n1Cc1ccccc1` [Compound 527, N-[4-[[1-benzyl-2-(methylamino)imidazo[4,5-c]pyridin-6-yl]amino]phenyl]acetamide] fall in the same range of Emax: 50 to 100% for the first, 50 to 100% for the second.

`COc1cccc(-c2cc3c(Nc4ccc(N5CCN(C)CC5)cc4)nccc3[nH]2)c1` [Compound 310, 2-(3-methoxyphenyl)-N-[4-(4-methylpiperazin-1-yl)phenyl]-1H-pyrrolo[3,2-c]pyridin-4-amine] and `Fc1ccc(Nc2cc3[nH]c(-c4cn[nH]c4)cc3cn2)cc1` [Compound 114, N-(4-fluorophenyl)-2-(1H-pyrazol-4-yl)-1H-pyrrolo[3,2-c]pyridin-6-amine] fall in the same range of Emax: 50 to 100% for the first, 50 to 100% for the second.

First: CNc1nc2cnc(-c3ccc(F)c(Cl)c3)cc2n1-c1ccccc1 [Compound 784, 6-(3-chloro-4-fluoro-phenyl)-N-methyl-1-phenyl-imidazo[4,5-c]pyridin-2-amine]
Second: Cn1c(-c2ccco2)nc2cnc(Nc3ccccc3Cl)cc21 [Compound 710, N-(2-chlorophenyl)-2-(2-furyl)-1-methyl-imidazo[4,5-c]pyridin-6-amine]
The Emax of the first is lower: 0 to 30% for the first, 30 to 50% for the second.

same assay, conditions: insulin HTRF, supernatant of beta-TC6 cells, incubation with test compound at 37°C for 2, 3, 4h

For `CNc1nc2cnc(-c3ccc(CO)cc3)cc2n1-c1ccccc1` [Compound 510, [4-[2-(methylamino)-1-phenyl-imidazo[4,5-c]pyridin-6-yl]phenyl]methanol], the “Ar (relative activity)” value was “++ (30 % ≤ Ar < 50 %)”.
